Data reported in patent US20240335429A1, “MOLECULAR GLUE AND SALL4 DEGRADER” (National University of Singapore, priority 2021, published 2024).

What was measured:
c-myc = assay: Immunoblot of c-myc (SALL4 downstream target) in SNU-398 cells; assay type: cell-based, human; conditions: Homo sapiens; SNU-398 HCC cells, 24 h treatment; read-out: suppression of SALL4 downstream target c-myc, IC50
Method: (§1) RIPA buffer containing freshly added protease inhibitors (2 mM PMSF) and protease inhibitor cocktail was used for cell lysis. The lysed cells were incubated for 10 min on ice and subsequently centrifuged at 4° C. for 10 min at 14,000 rpm. The protein concentrations of cell lysates were assessed using Bradford Assay as per manufacturer's instructions. The samples were denatured using 4× Sample buffer at 95° C. for 5 min. The samples were size resolved using polyacrylamide gel (8%) and Mini-PROTEAN Tetra Cell module. The size-resolved proteins were transferred onto PVDF via electroblotting using Mini Trans-Blot® module. The membrane was blocked using 5% BSA in TBST. The membrane was incubated with appropriate primary antibody (overnight) and secondary antibody (1 h). Immobilon Crescendo Western HRP substrate was used for signal development and images were acquired using darkroom development techniques.

H661 cells = assay: CellTiter-Glo viability assay, H661; assay type: cell-based; conditions: Homo sapiens
Method: Cells were plated in RPMI culture media (40 μL) in 384-well white, flat-bottom plates (Corning) and incubated at 37° C. in a humidified atmosphere of 5% CO2 overnight. The numbers of cells per well were 1,500 for SNU-398 and SNU-182, 750 for SNU-387, SNU-449, SNU-475 and SNU-423, and 1,000 for H661 and H1299. After overnight incubation, 10 μL of drug (1% DMSO in RPMI) at designed concentrations were added to the cells. The cells were then incubated for 16, 24, 48, 72, or 96 h at 37° C. in a humidified atmosphere of 5% CO2 before CellTiter-Glo reagent (10 μL) was dispensed to the wells. The cells were incubated at room temperature for a minimum of 10 min. After that, luminescence readings were recorded by a Microplate Reader (PHERAstar or Tecan Infinite M200 Pro) according to the manufacturer's instruction for measuring the luminescence.

SALL4A = molecular target: T1, SALL4A (Homo sapiens, UniProt Q9UJQ4); assay: Immunoblot of endogenous SALL4A in SNU-398 HCC cells; assay type: cell-based; conditions: SNU-398 cells, 24 h, immunoblot quantification
T1 construct: endogenous in cells; host or cells: SNU-398 HCC cells
T1 sequence (Q9UJQ4 1-1053): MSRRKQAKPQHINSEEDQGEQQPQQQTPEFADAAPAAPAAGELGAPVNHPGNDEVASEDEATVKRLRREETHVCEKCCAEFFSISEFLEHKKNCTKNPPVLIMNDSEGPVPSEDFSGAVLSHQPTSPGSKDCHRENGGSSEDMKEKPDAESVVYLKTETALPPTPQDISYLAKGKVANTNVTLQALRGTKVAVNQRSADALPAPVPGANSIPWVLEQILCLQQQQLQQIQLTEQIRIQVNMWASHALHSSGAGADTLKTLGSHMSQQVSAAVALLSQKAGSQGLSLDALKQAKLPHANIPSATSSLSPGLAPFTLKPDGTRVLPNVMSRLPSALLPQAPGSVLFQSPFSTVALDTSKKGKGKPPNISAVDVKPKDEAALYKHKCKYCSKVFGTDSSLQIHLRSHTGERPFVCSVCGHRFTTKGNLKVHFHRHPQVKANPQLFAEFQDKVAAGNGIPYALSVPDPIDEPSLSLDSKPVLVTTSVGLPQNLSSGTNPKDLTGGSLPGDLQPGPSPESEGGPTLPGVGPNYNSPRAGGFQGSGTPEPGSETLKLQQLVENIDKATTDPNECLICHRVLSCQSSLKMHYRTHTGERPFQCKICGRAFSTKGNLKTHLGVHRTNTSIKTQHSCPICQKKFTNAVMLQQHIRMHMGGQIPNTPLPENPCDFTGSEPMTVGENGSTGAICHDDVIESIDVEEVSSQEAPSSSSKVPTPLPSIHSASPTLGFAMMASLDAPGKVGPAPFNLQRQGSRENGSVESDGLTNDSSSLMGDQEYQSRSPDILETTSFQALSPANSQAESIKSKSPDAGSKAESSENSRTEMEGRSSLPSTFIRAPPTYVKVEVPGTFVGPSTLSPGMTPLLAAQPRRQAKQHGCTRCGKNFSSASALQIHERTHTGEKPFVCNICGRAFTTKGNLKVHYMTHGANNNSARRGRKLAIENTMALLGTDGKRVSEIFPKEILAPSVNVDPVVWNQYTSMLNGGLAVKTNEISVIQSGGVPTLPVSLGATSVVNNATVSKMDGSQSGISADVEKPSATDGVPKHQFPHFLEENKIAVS
Method: as §1
A head-to-head comparison between the newly discovered SALL4 degrader QE-18-WG07 and IMiDs (Pomalidomide and Thalidomide) was performed. […]

Work on `COc1ccccc1NC(=O)Nc1ccc([N+](=O)[O-])cc1O` [QE-18-WG07] yielded an IC50 (c-myc) of ~5120 nM, an Emax at 1 µM (H661 cells; NCI-H661, 72 h, achieved at 1 μM, read-out: maximum growth inhibition Emax) of 90 to 100% and an IC50 (H661 cells; NCI-H661, 72 h, read-out: IC50 of cell viability) of 522 nM. For the same molecule, the EC50 (H661 cells; NCI-H661, 72 h cell viability, read-out: half maximal growth inhibition EC50) was 420 nM, the DC50 (SALL4A) was ~4230 nM and the Dmax (SALL4A) was 57%.
